Assay results taken from US20110104103A1, “Method of conjugating therapeutic compounds to cell targeting devices via metal complexes” (KREATECH BIOTECHNOLOGY B.V., priority 2005, published 2011).
“Also recorded” adds a separate entry of the source.

Experiments:
[1] = tested on: activated hepatic stellate cells (HSC); experiment: Immunohistochemical staining of fibrosis markers in HSC after 24 h incubation; assay type: cell-based; conditions: conjugates 1 mg/ml (100 μM PTX), non-targeted PTX 1 mM
Method: The pharmacological effects of the conjugates were tested on different cultured cell types, e.g. activated hepatic stellate cells (HSC), kidney tubular cells (HK-2 cells) or human umbilical cord endothelial cells (HUVEC). Typically, cells were incubated for 24 h at 37° C. with the conjugates. Subsequently, the cells were subjected to analyses related to pharmacological activity of the coupled drug (gene expression analysis, immunohistochemcial evaluation of effect markers), or assays related to potential cytotoxicity of the complexes (cell viability assays, apoptosis assays).
FIG. 5. […] Cells were stained for collagen type I or α-smooth muscle actin and counterstained with hematoxillin. […] Magnification 10×. One of the hallmarks of liver fibrosis is the induced expression and production of a-smooth muscle actin (aSMA) and collagen type 1 by activated HSC. These proteins were therefore selected as read-out parameters of the antifibrotic effects of the targeted PTX.

[2] = tested on: IL8 gene expression in HUVEC treated with TNF; experiment: IL8 gene expression in TNF-treated HUVEC; assay type: cell-based, human; conditions: 10 μM
[3] = 5 mg/kg of free SB202190, 4 h after administration; cited from earlier work
UUO rats = experiment: Unilateral ureteral obstruction (UUO) model of renal fibrosis; assay type: in vivo; conditions: day 3
Method: Animals were divided into 4 groups: normal rats, fibrotic control animals (vehicle, 5% glucose), TKI-LZM (25 mg/kg equiv. to 630 μg/kg TKI) and free, unconjugated TKI (630 μg/kg). TKI was dissolved in 20% hydroxylpropyl-β-cyclodextrin in water with 5% DMSO, whereas TKI-LZM was dissolved in 5% glucose. To allow unhindered uptake of the products in the kidneys, rats were injected intravenously with either of these compounds 2 h before the uretheral obstruction. Left kidneys and ureter were exposed via a flank-incision under isoflurane anesthesia after which the ureter was ligated at three sites with 4-0 silk near the hilum. After 3 days, animals were sacrificed under anesthesia and kidneys were gently flushed and harvested. Kidney cortex pieces were snap-frozen to isolate RNA as described above. Kidney pieces were fixed in 4% formalin solution in PBS to make paraffin-embedded sections for anti-α-SMA and ED-1 immunohistochemical staining and morphometric analysis.

[4] = Organ distribution and liver losartan levels in BDL rats; assay type: in vivo
Method: The extraction was performed by adding 3 ml of methyl butyl ether to 200 μl of liver homogenate and vortexing for 5 min. Layers were separated by centrifugation at 900×g for 5 min and the aqueous layer was frozen in liquid nitrogen. The upper organic layer was transferred to another borosilicate glass tube and evaporated completely at 60° C. The extraction procedure was repeated twice and the total residue was reconstituted in 200 μl of mobile phase. Chromatography was carried out using a C18 (C18, 5 μm, 4.6×150 mm) reversed-phase column (Surefire, Waters Inc., Milford, Mass., USA) at 40° C. with an isocratic mobile phase consisting of acetonitrile-water-trifluoroacetic acid (30:70:0.1, v/v/v; pH 2.0).

[5] = tested on: hepatic fibrosis in BDL rats; experiment: Antifibrotic effect of losartan-cisULS-M6PHSA in BDL model of liver fibrosis; assay type: in vivo; conditions: four daily doses
Method: Ten minutes after the last dose, animals were sacrificed and blood and liver samples were obtained. […] The extraction was performed by adding 3 ml of methyl butyl ether to 200 μl of liver homogenate and vortexing for 5 min. Layers were separated by centrifugation at 900×g for 5 min and the aqueous layer was frozen in liquid nitrogen. The upper organic layer was transferred to another borosilicate glass tube and evaporated completely at 60° C. The extraction procedure was repeated twice and the total residue was reconstituted in 200 μl of mobile phase. Chromatography was carried out using a C18 (C18, 5 μm, 4.6×150 mm) reversed-phase column (Surefire, Waters Inc., Milford, Mass., USA) at 40° C. with an isocratic mobile phase consisting of acetonitrile-water-trifluoroacetic acid (30:70:0.1, v/v/v; pH 2.0).
Animal experiments were performed as described above.

[6] = molecular target: T1, αvβ3-integrin expressed on the surface of HUVEC (Homo sapiens, UniProt P05106+P06756); experiment: Competitive displacement of 125I-labeled echistatin; conditions: displacement of 125I-echistatin, read-out: IC50 (binding affinity)
T1 construct: αvβ3-integrin expressed on the surface of HUVEC; endogenous in cells; host or cells: HUVEC (confluent monolayers)
Method: In a different experimental setup that allowed the calculation for binding constants, we explored the affinity of RGD-equipped PTK787-cisULS-albumins. ^125I-labeled echistatin was used as a radioligand for αvβ3-integrin expressed on the surface of HUVEC. Competitive binding studies were performed by coincubating using confluent monolayers of HUVEC with the radiolabeled ligand and non-radiolabeled complexes.

[7] = Drug release studies (stability of drug-carrier linkage); assay type: in vitro ADME
Method: The stability of the drug-carrier linkage was investigated by incubating cell targeting complexes at 37° C. under several conditions, e.g. buffers, buffers spiked with drug releasing substances or biological media.

[8] = Pharmacokinetic evaluation of kidney directed complexes in healthy rats; assay type: in vivo, Wistar rats
Method: Organ distribution studies with this type of cell targeting complexes were performed in healthy Wistar rats. All in vivo experiments were approved by the Local Committee for Care and Use of Laboratory Animals.
Rats were injected intravenously with a single dose of the SB202190-cisULS-lysozyme conjugate (16 mg/kg equivalent to 376 μg/kg of SB202190; dissolved in 5% glucose) via the penile vein. Animals were sacrificed at different time points between 1 and 72 h after administration. Blood samples were collected by heart puncture and kidneys were isolated after flushing the organs gently with saline. Serum and organs were snap-frozen into liquid nitrogen immediately. Urine samples were collected using metabolic cages and combined with the urine collected from urinary bladder after sacrificing the animals. Kidneys were weighed, homogenized (1:3 w/v in PBS, Turrax homogenization) and then stored at −80° C. Released drug amounts were estimated by HPLC analysis after extraction as described before. To estimate total drug (bound plus released), samples were treated with KSCN to release SB202190 from the ULS linker as described above and then subjected to HPLC analysis. Anti-LZM immunohistochemical staining was performed on cryostat kidney sections to detect the uptake of the conjugate in tubular cells.
Renal drug levels were assayed in KSCN-treated kidney homogenates and serum samples using HPLC methods optimized for the respective drugs. Y27632 was analyzed on a C18 reversed-phase SunFire™ column C18 using a mobile phase of water-methanol-trifluoroacetic acid (86:14:0.1, v/v/v; pH 2.0) at a flow rate of 1 ml/min. TKI was analyzed on the same column using a mobile phase consisted of water-acetonitrile-trifluoroacetic acid (91:09:0.1, v/v/v; pH 2.0) at a flow rate of 1 ml/min.

[9] = Platinum-related toxicity of SB202190-cisULS-LZM in normal rats; assay type: in vivo, Male Wistar rats
Source text: In addition to drug related effects, we investigated whether administration of cell targeting complexes to healthy rats induced potential platinum related toxicity. Since the kidney is one of the major sites of platinum toxicity of cytostatic compounds, we performed these studies with SB202190-cisULS-LZM which accumulates in the kidney. We investigated morphology and induction of apoptosis (TUNEL staining), as well as basic renal parameters.
In order to detect potential platinum-related toxicity of kidney directed cell targeting complexes, we evaluated SB202190-cisULS-LZM in healthy rats.
To examine the effect on renal function, serum and urine creatinine levels were determined and creatinine clearances were calculated. […] To calculate proteinuria for the SB202190-cisULS-LZM group, the mean of the urinary protein levels at different days was taken. TUNEL stainings were performed on frozen kidney sections to examine the number of apoptotic cells. In addition, we determined the platinum levels in kidneys using […] after digestion of the tissue in concentrated nitric acid for 24 h at room temperature and heating at 70° C. until the formation of clear solution.

I/R rats = experiment: Unilateral ischemia/reperfusion injury (I/R) model; assay type: in vivo
[10] = tested on: endothelial cells (HUVEC); experiment: Binding of 89Zr-radiolabeled RGD-equipped complex to endothelial cells; design: species or system human; conditions: 4° C. for 4 h
Method: The interaction of cell targeting complexes with target cells was investigated in cultured target cells. Typically, in vitro targeting studies were performed by incubating target cells with the complexes, at either 4° C. or 37° C. Binding and/or internalization of the complexes by target cells was detected by either immunohistochemical staining for the complex (e.g. anti-HSA or anti-LZM staining) or by quantification of a radioactive reporter group that had been introduced in the complex (e.g. ^125I).
Binding of RGD-equipped complexes to endothelial cells was studied using ^89Zr-radiolabeled compounds.

[11] = normal rats, mean ± SEM, SB-ULS-LZM at 24, 32, 48 and 72 h, cisplatin 3 mg/kg i.v. at 24 h
[12] = four i.v. doses, 20 mg/kg conjugate or 555 μg/kg Y27632

T1 sequence (P06756 31-889 limits assumed): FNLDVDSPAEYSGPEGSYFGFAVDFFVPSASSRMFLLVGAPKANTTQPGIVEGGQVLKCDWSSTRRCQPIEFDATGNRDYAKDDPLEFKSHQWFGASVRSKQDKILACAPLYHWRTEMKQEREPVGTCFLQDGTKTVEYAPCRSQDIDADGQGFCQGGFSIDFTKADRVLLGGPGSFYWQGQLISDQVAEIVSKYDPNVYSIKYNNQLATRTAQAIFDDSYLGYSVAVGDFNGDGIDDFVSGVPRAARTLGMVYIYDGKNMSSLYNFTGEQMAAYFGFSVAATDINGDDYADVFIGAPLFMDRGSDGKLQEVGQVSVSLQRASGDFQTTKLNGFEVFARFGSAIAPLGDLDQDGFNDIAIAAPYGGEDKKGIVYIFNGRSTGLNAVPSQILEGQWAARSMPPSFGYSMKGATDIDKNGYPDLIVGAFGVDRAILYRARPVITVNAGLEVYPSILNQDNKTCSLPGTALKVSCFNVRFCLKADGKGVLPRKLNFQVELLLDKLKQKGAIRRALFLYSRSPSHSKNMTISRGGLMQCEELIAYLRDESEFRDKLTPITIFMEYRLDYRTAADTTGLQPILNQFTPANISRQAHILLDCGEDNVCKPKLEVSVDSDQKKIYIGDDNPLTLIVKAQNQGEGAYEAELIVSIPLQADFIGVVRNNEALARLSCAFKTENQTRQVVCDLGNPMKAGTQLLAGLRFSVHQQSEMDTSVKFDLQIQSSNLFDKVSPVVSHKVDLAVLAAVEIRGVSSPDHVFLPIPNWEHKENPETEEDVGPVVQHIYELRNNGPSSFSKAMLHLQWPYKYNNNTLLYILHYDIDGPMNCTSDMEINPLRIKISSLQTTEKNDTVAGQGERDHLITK
T1 sequence (P06756 891-1048 partner limits assumed): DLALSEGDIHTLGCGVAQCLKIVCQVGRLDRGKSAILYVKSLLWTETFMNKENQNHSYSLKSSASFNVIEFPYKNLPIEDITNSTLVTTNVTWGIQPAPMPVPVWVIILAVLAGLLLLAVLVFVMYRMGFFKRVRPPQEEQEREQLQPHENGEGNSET
T1 sequence (P05106 27-788): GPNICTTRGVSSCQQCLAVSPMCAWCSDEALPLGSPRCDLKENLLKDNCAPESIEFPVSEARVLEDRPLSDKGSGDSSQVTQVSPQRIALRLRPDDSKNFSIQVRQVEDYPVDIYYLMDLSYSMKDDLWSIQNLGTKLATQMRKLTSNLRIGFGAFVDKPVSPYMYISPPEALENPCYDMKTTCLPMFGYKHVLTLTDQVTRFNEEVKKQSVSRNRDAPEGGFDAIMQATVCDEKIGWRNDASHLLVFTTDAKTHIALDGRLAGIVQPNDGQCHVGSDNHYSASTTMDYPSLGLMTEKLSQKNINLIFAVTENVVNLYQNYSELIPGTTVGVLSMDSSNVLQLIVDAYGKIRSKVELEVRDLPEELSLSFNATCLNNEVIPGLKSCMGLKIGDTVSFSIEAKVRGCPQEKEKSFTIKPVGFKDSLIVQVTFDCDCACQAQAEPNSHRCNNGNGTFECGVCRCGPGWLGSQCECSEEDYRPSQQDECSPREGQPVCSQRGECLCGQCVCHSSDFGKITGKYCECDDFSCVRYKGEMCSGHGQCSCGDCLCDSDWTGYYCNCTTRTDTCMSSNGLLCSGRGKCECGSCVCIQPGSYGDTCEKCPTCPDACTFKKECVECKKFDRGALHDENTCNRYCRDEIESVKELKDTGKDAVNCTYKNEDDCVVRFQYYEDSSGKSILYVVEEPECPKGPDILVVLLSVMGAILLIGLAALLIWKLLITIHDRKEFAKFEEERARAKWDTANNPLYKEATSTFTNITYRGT

Question: Which aSMA staining intensity [1] does the source give for `CC(=O)CCCCn1c(=O)c2c(ncn2C)n(C)c1=O` [PTX, 3,7-dimethyl-1-(5-oxohexyl)purine-2,6-dione] here?
Answer: The aSMA staining intensity was “reduced the intensity of both collagen type I production and aSMA”.

Question: And the “collagen type I staining” value [1]?
Answer: Its value is “reduced the intensity of both collagen type I production and aSMA”.

Question: For `Oc1ccc(-c2nc(-c3ccncc3)c(-c3ccc(F)cc3)[nH]2)cc1` [SB202190, 4-(-Fluorophenyl)-2-(4-hydroxy-phenyl)-5-(4-pyridyl)-1H-imidazole], which “IL8 gene expression level after inhibition” value [2] is on record?
Answer: The value was 40%.

Question: And the “fraction distributed to the kidney” value [3]?
Answer: The value was 0.2%.

Question: What does the source list for `c1ccc(-c2n[nH]cc2-c2ccnc3ccccc23)nc1` [TKI, 3-(Pyridin-2-yl)-4-(4-quinonyl)-1H-pyrazole]?
Answer: MCP-1 gene expression in kidney (UUO rats; single dose 25 mg/kg conjugate or 630 μg/kg TKI): did not lower the expressions of MCP-1; expression of the fibrosis marker α-SMA (UUO rats; single dose): significantly decreased; infiltrated macrophages (ED-1 immunostaining) (UUO rats; single dose): a reduction of ED-1 immunostaining

Question: With `CCCCc1nc(Cl)c(CO)n1Cc1ccc(-c2ccccc2-c2nn[nH]n2)cc1` [losartan] as the compound, how does the “liver losartan as % of the cumulative dose” value ([4]; BDL rats, 10 min after last dose) read?
Answer: Its value is 4%.

Question: What about the concentration at 10 min ([4]; rat, liver, oral, 5 mg/kg/day) of the same compound?
Answer: The concentration at 10 min was 12100 ng/g.

Question: And the “hepatic fibrosis, Sirius Red staining” value [5]?
Answer: Its value is “Severe bridging”.

Question: And the “αSMA-positive cells in liver” value [5]?
Answer: Its value is “marked accumulation of αSMA-positive cells”.

Question: Which IC50 [6] does the source give for “RGDPEG-avidin: avidin with RGD-peptide via vinylsulfone-PEG-NHS, average 5.4 RGD groups per avidin” here?
Answer: The IC50 was 134 nM.

Question: Which results are given for SB202190-cisULS-LZM?
Answer: Stability / release of SB202190 ([7]; 37° C. in PBS pH 7.4 or rat serum): high stability in buffer or serum; Release of SB202190 ([7]; 37° C., kidney homogenate in PBS 1/3 (w/v)): continuously released free drug; free drug in serum / serum stability ([8]; 16 mg/kg i.v. single dose, 1-72 h): free drug was absent at all time points; also recorded: remained stable in the serum; accumulation in the kidneys ([8]; 16 mg/kg i.v., within 1 h): 20 % of the injected dose; accumulation in proximal tubular cells (anti-LZM staining) ([8]; kidney sections): accumulation of the conjugate in proximal tubular cells was confirmed; renal levels of free and bound drug over time ([8]; single dose 16 mg/kg i.v.): continuous levels of both free drug and bound drug during a three-day period; tubular cell apoptosis by TUNEL staining ([9]; as compared to untreated rats): no increase in the number of apoptotic cells; urinary protein levels ([9]; in comparison to untreated rats): an increase in urinary protein levels; TUNEL positive cells ([9]; normal rats, kidney sections, mean ± SEM, cisplatin at 24 h): 42.7 ± 18 numbers per field; Renal platinum concentration ([9]; normal rats, ICP-AAS, mean ± SEM): 37.0 ± 1.2 nmol/g; Change in body weight ([9]; normal rats, mean ± SEM): +0.3 ± 1.2 %; Creatinine clearance [9, 11]: 0.8 ± 0.03 mL/min; urinary protein levels [9, 11]: 29.6 ± 2.0 mg/day

Question: With “Y27632-cisULS-LZM: Y27632-cisULS reacted with met-LZM, 1-2 Y27632 per LZM” as the compound, how does the “infiltration of macrophages, ED-1 staining morphometric score” value (I/R rats; [12]) read?
Answer: Its value is “significantly reduced the morphometric score of the stained areas”.

Question: What about the “α-SMA staining morphometric score” value (I/R rats; [12]) of the same compound?
Answer: Its value is “significantly reduced the morphometric score of the stained areas”.

Question: With “c(RGDf(ε-S-acetylthioacetyl)K) [RGD-peptide]” as the compound, how does the “displacement of binding of RGDPEG-SB202190-cisULS-HSA” value [10] read?
Answer: Its value is “could be displaced”.

Question: With losartan-cisULS-LZM as the compound, how does the “number of infiltrated macrophages (ED-1)” value (I/R rats; four doses 20 mg/kg/day) read?
Answer: The value was “reduced the number of infiltrated macrophages”.
